In patent US9616047B2, “Inhibitors of beta-catenin in treatment of colorectal cancer” (Regents of the University of Minnesota, priority 2014, dated 2017):

Assays:
[1] = test system: β-catenin/Tcf-4 luciferase activity; assay: β-catenin/Tcf-4 luciferase assay of HI-B9 derivatives (cell line not stated); assay type: cell-based; details: FIG. 6A
Method: (§1) (B) HI-B16 inhibited anchorage-independent growth of colon cancer cells. HCT116, HT29, DLD1 and SW480 were incubated in agar plate with or without HI-B16 and HI-B9. In every case, HI-B16 was better than HI-B9 treatment.
Transient transfection was performed using jetPEI and assays to detect firefly luciferase and Renilla activities according to the manufacturer's manual (Promega). Briefly, cells were seeded onto 10-cm plates and co-transfected with 400 ng of the Renilla luciferase internal control gene and 4 μg of the TOP-flash luciferase reporter construct containing three tandem Tcf consensus binding sites upstream of luciferase cDNA, or the FOPflash luciferase reporter construct, a plasmid with mutated Tcf binding sites. After 16 h of transfection, cells were trypsinized and seeded onto 48-well plates, and cells were treated with respective chemicals for 24 h. Luciferase and Renilla activities were measured using their substrates.

[2] = test system: HCT116 colon cancer cells; assay: Soft agar assay, anchorage-independent growth, HCT116; assay type: cell-based
Method: (§2) FIG. 2. […] HCT116 and HT-29 colon cancer cells. Colony formation of two cell lines were inhibited by treatment of β-catenin inhibitor candidates. Cells (8×10^3/ml) were incubated with or without HI-B5 or HI-B9 compounds in 1 mL of 0.33% BME agar containing 10% FBS or in 3.5 mL of 0.5% BME agar containing 10% FBS. The cultures were maintained at 37° C. in a 5% CO2 incubator for 7 days, after which the cell colonies were counted under a microscope.
(§3) Cells (8×10^3 per well) suspended in Basal Medium Eagle (BME) supplemented with 10% FBS were added to 0.3% agar with different doses of chemicals in a top layer over a basal layer of 0.6% agar. The cultures were maintained at 37° C. in a 5% CO2 incubator for 2 wk and then colonies were counted under a microscope using the Image-Pro Plus Software (v.4) program (Media Cybernetics).

HT-29 colon cancer cells = assay: Soft agar assay, anchorage-independent growth, HT29; assay type: cell-based
Method: as §2, §3

DLD1 = assay: Soft agar assay, anchorage-independent growth, DLD1; assay type: cell-based
Method: as §1, §3

SW480 = assay: Soft agar assay, anchorage-independent growth, SW480; assay type: cell-based
Method: as §1, §3

colon cancer cells = assay: Proliferation and anchorage-independent growth of colon cancer cells (statements over several lines); assay type: cell-based; details: every cell line tested: HCT116, HT29, DLD1 and SW480
Method: as §3

β-catenin = assay: Ex vivo pull-down with compound-conjugated Sepharose 4B beads and colon cancer cell lysate: β-catenin; assay type: binding; details: colon cancer cell lysates; compound-conjugated Sepharose 4B beads
Method: Protein extracts (500 μg) of colon cancer cells were mixed with Sepharose-4B beads (as a negative control) or chemical-conjugated Sepharose 4B beads (100 μl) in reaction buffer. After being washed five times with buffer, the proteins were visualized by Western blot analysis.

[3] = biological target: T1, human β-catenin (126-781 amino acid residues) (Homo sapiens, UniProt P35222); assay: In vitro binding assay with purified β-catenin and compound-conjugated sepharose 4B bead
T1 construct: human β-catenin (126-781 amino acid residues)
T1 sequence (P35222 126-781): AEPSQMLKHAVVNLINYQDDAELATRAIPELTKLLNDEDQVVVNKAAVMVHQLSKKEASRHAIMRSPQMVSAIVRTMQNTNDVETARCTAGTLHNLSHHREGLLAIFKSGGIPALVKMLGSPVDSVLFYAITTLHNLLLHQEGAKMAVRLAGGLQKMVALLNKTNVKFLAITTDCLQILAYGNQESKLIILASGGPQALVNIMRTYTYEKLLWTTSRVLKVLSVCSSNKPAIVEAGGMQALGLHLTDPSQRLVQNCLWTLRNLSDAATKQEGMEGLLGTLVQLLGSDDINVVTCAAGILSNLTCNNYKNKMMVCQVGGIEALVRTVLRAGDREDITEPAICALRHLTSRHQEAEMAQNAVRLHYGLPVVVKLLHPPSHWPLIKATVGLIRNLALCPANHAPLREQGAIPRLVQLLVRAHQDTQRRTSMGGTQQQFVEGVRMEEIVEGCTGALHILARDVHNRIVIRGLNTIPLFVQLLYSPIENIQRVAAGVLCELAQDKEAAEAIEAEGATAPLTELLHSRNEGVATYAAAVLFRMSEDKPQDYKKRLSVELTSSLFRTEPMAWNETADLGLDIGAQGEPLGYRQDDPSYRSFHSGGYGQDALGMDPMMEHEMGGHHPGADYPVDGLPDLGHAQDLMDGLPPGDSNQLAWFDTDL
Method: FIGS. 7A-C. […] 2% of input from each experiments were used to show equal amount of incubated protein (purified or total cell lysates).
Based on the structure of the active compound HI-B9, additional analogs HI-B12, 13, 16, 17 and 20 (FIG. 5) were de novo designed and synthesized. […] 2% of input from each experiments were used to show equal amount of incubated protein (purified or total cell lysates).

c-Myc and cyclin D1 = assay: Western blot analysis of β-catenin/Tcf-4 targets; assay type: cell-based
Method: Proteins from cell lysates were prepared, separated by SDS-PAGE and transferred to Immobilon-P membranes (Millipore Corporation, Billerica, Mass.). Membranes were blocked with 5% nonfat dry milk for 1 h at room temperature and incubated with each of the primary and secondary antibodies. The signal was detected with a chemiluminescence reagent (Amersham).

binding of purified β-catenin to compound-conjugated bead (in vitro) [3]: bound
SMILES: O=C(CC1(O)C(=O)Nc2ccc(F)cc21)c1ccc(O)c(C23CC4CC(CC(C4)C2)C3)c1 (centres unmarked) [HI-B16]
inhibitory effect in β-catenin/Tcf-4 luciferase assay compared with HI-B9 [1]: exerted inhibitory effects better than HI-B9
inhibition of luciferase activity ([1]; concentration not given): ~90%
anchorage-independent growth (colony formation in soft agar) [2]: inhibit anchorage-independent growth
anchorage-independent growth (colony formation in soft agar) (HT-29 colon cancer cells): inhibit anchorage-independent growth
anchorage-independent growth (colony formation in soft agar) (DLD1): inhibit anchorage-independent growth
anchorage-independent growth (colony formation in soft agar) (SW480): inhibit anchorage-independent growth
inhibition of anchorage-independent growth compared with HI-B9 treatment (colon cancer cells): more effective than HI-B9
binding to β-catenin (ex vivo pull-down) (β-catenin): resulted in HI-B16/β-catenin binding
protein expression of c-Myc and cyclin D1 (c-Myc and cyclin D1): inhibited cyclin D1 and c-myc expression
β-catenin and Tcf-4 expression level (c-Myc and cyclin D1): not affected
